Ki data for 8 molecules are collected here from BindingDB's records for doi:10.1016/0014-2999(88)90492-x (Novo Industri, 1988).

In general, Ki refers to the equilibrium dissociation constant of an inhibitor or competing ligand from its target. Low readings indicate tighter binding, high ones weaker binding.

Counter-ions that a name gives are not always drawn. Where only a bound is given, the exact number is not on record here.

The target of experiment [1] is D(1A) dopamine receptor (Mus musculus, UniProt Q61616).
D(1A) dopamine receptor, sequence (Q61616 whole entry): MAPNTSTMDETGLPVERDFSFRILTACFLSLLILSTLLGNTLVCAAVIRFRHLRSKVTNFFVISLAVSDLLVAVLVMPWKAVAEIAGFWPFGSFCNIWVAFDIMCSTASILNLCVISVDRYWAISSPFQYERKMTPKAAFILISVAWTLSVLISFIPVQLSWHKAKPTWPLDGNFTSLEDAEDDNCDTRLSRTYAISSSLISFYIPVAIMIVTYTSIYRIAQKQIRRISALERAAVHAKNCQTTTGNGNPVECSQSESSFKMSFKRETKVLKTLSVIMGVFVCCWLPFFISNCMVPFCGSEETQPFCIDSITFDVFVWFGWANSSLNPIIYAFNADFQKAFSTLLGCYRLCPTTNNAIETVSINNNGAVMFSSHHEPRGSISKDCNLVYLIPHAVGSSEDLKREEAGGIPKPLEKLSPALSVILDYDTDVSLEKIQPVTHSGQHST
In experiment [2] the target is D(2) dopamine receptor (Mus musculus, UniProt P61168).
D(2) dopamine receptor, sequence (P61168 whole entry): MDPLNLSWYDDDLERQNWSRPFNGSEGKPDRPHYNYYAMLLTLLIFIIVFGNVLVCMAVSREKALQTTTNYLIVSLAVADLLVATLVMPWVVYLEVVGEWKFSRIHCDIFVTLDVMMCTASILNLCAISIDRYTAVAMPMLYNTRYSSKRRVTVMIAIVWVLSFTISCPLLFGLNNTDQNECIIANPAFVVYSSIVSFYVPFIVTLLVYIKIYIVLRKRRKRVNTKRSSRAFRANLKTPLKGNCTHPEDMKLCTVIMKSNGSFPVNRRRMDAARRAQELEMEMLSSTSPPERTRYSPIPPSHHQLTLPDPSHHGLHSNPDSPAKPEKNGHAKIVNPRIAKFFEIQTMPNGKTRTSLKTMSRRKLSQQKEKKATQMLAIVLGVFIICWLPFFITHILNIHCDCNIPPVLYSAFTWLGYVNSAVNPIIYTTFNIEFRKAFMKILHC

`OCCN1CCN(CCCN2c3ccccc3Sc3ccc(C(F)(F)F)cc32)CC1` [2-[4-[3-[2-(trifluoromethyl)phenothiazin-10-yl]propyl]piperazin-1-yl]ethanol;hydrochloride] displayed a Ki in experiment [1] of 4.5 nM.

`CCc1c(C)[nH]c2c1C(=O)C(CN1CCOCC1)CC2` (centres undefined) [Moban]: the inhibition constant Ki in experiment [1] is more than 10000 nM; in experiment [2] it was 56 nM.

Regarding `CN1CCN(C2=Nc3cc(Cl)ccc3Cc3sccc32)CC1` [CAS_42239-60-1], the values for the Ki in experiment [1] and in experiment [2] were 17 nM and 27 nM, respectively.

For `CN1CCN(C2=Nc3cc(F)ccc3Cc3ccccc32)CC1`, the Ki in experiment [1] came out at 85 nM; in experiment [2], 245 nM.

With `O=C(O)c1ccccc1C(=O)Nc1cccc2ccccc12` [NPA,(+)], the Ki in experiment [1] came to 480 nM; in experiment [2], 4.1 nM.

The molecule `CCN1CCCC1CNC(=O)c1cc(S(N)(=O)=O)ccc1OC` (centres undefined) [N-[(1-ethylpyrrolidin-2-yl)methyl]-2-methoxy-5-sulfamoylbenzamide] had a Ki in experiment [2] of 70 nM.

For the molecule `CN1CCN(C2=Nc3ccccc3Oc3ccc(Cl)cc32)CC1` [13-chloro-10-(4-methylpiperazin-1-yl)-2-oxa-9-azatricyclo[9.4.0.0^{3,8}]pentadeca-1(11),3,5,7,9,12,14-heptaene], the Ki in experiment [1] stood at 16 nM; in experiment [2] it was 7.6 nM.

On to `CCN1CCC[C@H]1CNC(=O)c1c(O)c(Cl)cc(Cl)c1OC` [3,5-Dichloro-N-(1-ethyl-pyrrolidin-2-ylmethyl)-2-hydroxy-6-methoxy-benzamide (raclopride)], for which the inhibition constant (Ki) is more than 10000 nM in experiment [1] and 4.8 nM in experiment [2].
